Earlier results in patent publication US4134792A, “Specific binding assay with an enzyme modulator as a labeling substance” (Miles Laboratories, Inc., priority 1976, dated 1979).

Tested on: glycogen synthetase
Set-up: key: inhibitory or negative effectors are indicated by (-); stimulatory or positive effectors are indicated by (+)
Conditions: yeast and lamb muscle; cited from earlier work

## O=P(O)(O)OC[C@H]1OC(O)[C@H](O)[C@@H](O)[C@@H]1O (stereo partly shown) [glucose-6-phosphate]
  allosteric effector: inhibitory (-) or stimulatory (+): +
